From EP4813993A1, “COMPOUND, PREPARATION METHOD THEREFOR, AND USE THEREOF” (Sichuan Kelun Pharmaceutical Research Institute Co., Ltd., priority 2023, dated 2025)

How the values were obtained:
Nav1.8 channels = target: T1, Nav1.8 channels (Homo sapiens, UniProt Q9Y5Y9); assay: Manual patch-clamp, current of stably overexpressed Nav1.8 channels (resting state voltage program); format: cell-based
T1 construct: expressed in transfected cells
Outline: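 Whole-cell manual patch clamp on cells stably overexpressing Nav1.8, held at -120 mV and stepped to 0 mV for 50 ms every 20 s (resting-state protocol). Compounds were perfused in ascending concentrations, each for 5 min or until stable; block of peak current was calculated at steady state.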

incision pain model = assay: Incision pain model in SD rats, Von Frey test; format: in vivo
Method: Experimental Example 7: Pharmacodynamic effect study of compounds in incision pain model in SD rats
Experimental animals: SD rats, male, 180-220 g.
Compound preparation: 5% (final preparation volume) of DMSO was added to dissolve the test compound, and then 10% (final preparation volume) of Cremophor EL and 85% Saline were sequentially added.
A plantar incision pain model was established in rats via surgery before the administration and test. Rats were placed in an anesthesia induction chamber and given 3%-4% isoflurane for anesthesia induction. After the anesthesia induction, a breathing mask was applied, and the isoflurane concentration was adjusted to 1%-2% to prevent the rats from suffering pain during the surgery. Each rat was placed in a supine position, and the surgical site was disinfected with alcohol and iodophor. Under sterile conditions, a 0.5 cm longitudinal incision was made on the left hind paw surface, 0.2 cm away from the heel, extending toward the toes. The skin and fascia were incised; the plantar muscle was separated, slightly lifted, and longitudinally incised. The skin was then sutured with 5-0 sutures and disinfected.
2. Administration and test
The Von Frey test was performed once before the surgery. On the second day after animal modeling, the test was repeated, and animals meeting the baseline requirements were selected for enrollment. The animals were randomly divided into 6 groups based on the 50% PWT values, with 10 animals per group. Administration was performed under a double-blind test protocol. The 50% PWT of the animals was measured separately before administration (baseline) and at 0.5 h, 2 h, 4 h, 6 h, or 8 h after administration, and a single dose was administered. The model control group was given normal saline, while the compound groups were given the compounds according to the administration doses in the table below.

[1] = Pharmacokinetic study in ICR mice; format: in vivo; details: male, mouse, plasma

T1 sequence (Q9Y5Y9 whole entry): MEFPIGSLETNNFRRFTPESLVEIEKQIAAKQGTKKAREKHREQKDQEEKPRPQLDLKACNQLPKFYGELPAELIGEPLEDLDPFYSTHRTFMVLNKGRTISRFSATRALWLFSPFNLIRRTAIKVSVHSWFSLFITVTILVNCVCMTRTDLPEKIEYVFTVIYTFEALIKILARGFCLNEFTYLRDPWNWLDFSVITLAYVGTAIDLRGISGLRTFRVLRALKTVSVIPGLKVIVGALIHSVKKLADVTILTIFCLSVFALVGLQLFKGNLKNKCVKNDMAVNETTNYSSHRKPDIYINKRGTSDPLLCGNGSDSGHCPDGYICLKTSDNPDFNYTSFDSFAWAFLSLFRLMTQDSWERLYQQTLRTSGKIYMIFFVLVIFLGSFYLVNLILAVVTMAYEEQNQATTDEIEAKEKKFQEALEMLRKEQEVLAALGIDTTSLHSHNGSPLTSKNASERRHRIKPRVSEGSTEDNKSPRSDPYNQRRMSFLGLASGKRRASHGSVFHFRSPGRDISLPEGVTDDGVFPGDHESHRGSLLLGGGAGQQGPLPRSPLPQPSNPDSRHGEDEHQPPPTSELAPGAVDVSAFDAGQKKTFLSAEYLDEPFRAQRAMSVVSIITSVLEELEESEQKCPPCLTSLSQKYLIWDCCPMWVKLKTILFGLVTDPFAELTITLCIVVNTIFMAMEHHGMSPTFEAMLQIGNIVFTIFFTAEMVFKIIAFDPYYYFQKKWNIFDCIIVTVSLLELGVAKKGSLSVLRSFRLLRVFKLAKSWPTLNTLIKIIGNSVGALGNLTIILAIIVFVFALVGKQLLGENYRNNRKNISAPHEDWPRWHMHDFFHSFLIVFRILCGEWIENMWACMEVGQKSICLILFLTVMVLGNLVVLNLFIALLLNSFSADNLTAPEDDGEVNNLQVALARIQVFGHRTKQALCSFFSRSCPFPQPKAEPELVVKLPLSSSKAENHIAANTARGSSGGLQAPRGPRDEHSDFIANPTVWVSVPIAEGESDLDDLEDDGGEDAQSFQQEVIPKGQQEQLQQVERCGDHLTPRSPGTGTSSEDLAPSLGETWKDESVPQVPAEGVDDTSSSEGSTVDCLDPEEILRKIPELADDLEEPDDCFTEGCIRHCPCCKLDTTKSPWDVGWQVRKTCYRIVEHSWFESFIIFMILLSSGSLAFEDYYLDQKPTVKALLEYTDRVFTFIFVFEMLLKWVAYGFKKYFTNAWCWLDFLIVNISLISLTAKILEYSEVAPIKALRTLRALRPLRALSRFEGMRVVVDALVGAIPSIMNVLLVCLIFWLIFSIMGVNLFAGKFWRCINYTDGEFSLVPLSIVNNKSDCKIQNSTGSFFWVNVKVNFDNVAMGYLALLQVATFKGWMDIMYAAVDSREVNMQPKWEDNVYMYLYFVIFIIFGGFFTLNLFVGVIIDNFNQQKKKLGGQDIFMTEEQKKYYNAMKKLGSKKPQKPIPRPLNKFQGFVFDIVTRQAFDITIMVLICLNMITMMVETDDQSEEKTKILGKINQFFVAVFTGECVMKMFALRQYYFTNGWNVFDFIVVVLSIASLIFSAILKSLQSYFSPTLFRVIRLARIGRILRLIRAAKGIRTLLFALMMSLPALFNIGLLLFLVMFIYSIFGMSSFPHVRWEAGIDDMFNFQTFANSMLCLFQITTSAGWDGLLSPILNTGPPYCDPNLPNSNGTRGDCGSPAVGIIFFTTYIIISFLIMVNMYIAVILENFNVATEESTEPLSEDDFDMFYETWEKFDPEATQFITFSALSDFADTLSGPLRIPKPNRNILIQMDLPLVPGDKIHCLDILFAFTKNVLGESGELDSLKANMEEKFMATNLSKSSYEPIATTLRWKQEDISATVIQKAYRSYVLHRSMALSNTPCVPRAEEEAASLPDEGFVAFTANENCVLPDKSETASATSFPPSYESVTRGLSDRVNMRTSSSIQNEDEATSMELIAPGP

COc1c(C2CC(C)(C(F)(F)F)SC2C(=O)Nc2ccnc(C(N)=O)c2)ccc(F)c1F (single isomer, unassigned) [Compound 139-A, 4-(3-(3,4-difluoro-2-methoxyphenyl)-5-methyl-5-(trifluoromethyl)tetrahydrothiophene-2-carboxamido)picolinamide]
IC50 (Nav1.8 channels): 0.06 nM | Inhibition rate (%) (Nav1.8 channels; concentration of 10 nM, 0.01 µM): 95.31% | analgesic activity compared with VX-548 (incision pain model; SD rats incision pain model, at the same dose): better analgesic activity than VX-548 | PWT 50% value (g) Post-surgery, Preadministration (incision pain model; SD rats, 125 mg/kg group, baseline before administration, Mean + SEM, n = 10): 3.95 ± 1.12 g | PWT 50% value (g) Pre-surgery (incision pain model; SD rats, 125 mg/kg group, baseline before surgery, Mean + SEM, n = 10): 14.4 ± 1.27 g | PWT 50% value (g) Time 0.5 h (incision pain model; SD rats, 125 mg/kg single dose, 0.5 h after administration, Mean + SEM, n = 10): 7.46 ± 3.86 g | PWT 50% value (g) Time 2 h (incision pain model; SD rats, 125 mg/kg single dose, 2 h after administration, Mean + SEM, n = 10): 10.11 ± 3.83 g | PWT 50% value (g) Time 6 h (incision pain model; SD rats, 125 mg/kg single dose, 6 h after administration, Mean + SEM, n = 10): 6.28 ± 2.28 g | PWT 50% value (g) Time 8 h (incision pain model; SD rats, 125 mg/kg single dose, 8 h after administration, Mean + SEM, n = 10): 6.29 ± 2.6 g | PWT 50% value (g) AUC0-8h (incision pain model; SD rats, 125 mg/kg single dose, Mean + SEM, n = 10): 60.47 ± 11.72 g | dose-effect relationship (incision pain model; rat incision pain model): relatively good dose-effect relationship | AUC(0-inf) ([1]; Oral administration (p.o.), 20 mg/kg): 24800 ng·h/mL | AUC(0-inf) ([1]; iv, Injection (i.v.), 2 mg/kg): 3080 ng·h/mL
